# Assay results from patent publication US8367830B2, “Methods for the identification of phosphatidylinositol kinase interacting molecules and for the purification of phosphatidylinositol kinase proteins” (Cellzome AG, priority 2009, dated 2013).
# What was measured:
# DNAPK [1] = target: T1, DNAPK (Homo sapiens, UniProt P78527); assay: Kinobeads competition binding, immobilized CZC31207, Jurkat/Ramos lysate mix; set-up: endogenous in cells; conditions: 10 μM free compound; mix of Jurkat and Ramos cell lysates
# Protocol: (§1) To the first aliquot of cell lysate 10 μM of the free compound CZC31207 was added and allowed to bind to proteins in the lysate. Then the affinity matrix with the immobilized compound was added to capture proteins that were not interacting with the previously added free compound. Beads were separated from the lysate and bead bound proteins were eluted in SDS sample buffer and subsequently separated by SDS-Polyacrylamide gel electrophoresis (FIG. 5). Suitable gel bands were cut out and subjected to in-gel proteolytic digestion with trypsin. The second lysate aliquot was processed identically, however no free compound was added (DMSO solvent control). Peptides originating from samples 1 and 2 were labeled with iTRAQ reagents (iTRAQ 114 and iTRAQ 116) and the combined samples were analyzed with a nano-flow liquid chromatography system coupled online to a tandem mass spectrometer (LC-MS/MS) experiment followed by iTRAQ reporter ion quantification in the MS/MS spectra as described in Example 2.
# (§2) Jurkat cells (ATCC number T1B-152) and Ramos cells (ATCC number CRL-1596) were either obtained from an external supplier (CIL SA, Mons, Belgium) or grown in one litre Spinner flasks (Integra Biosciences, #182101) in suspension in RPMI 1640 medium (Invitrogen, #21875-034) supplemented with 10% Fetal Bovine Serum (Invitrogen, #10270-106) at a density between 0.2×10^6 and 1.0×10^6 cells/ml. Cells were harvested by centrifugation, washed once with 1×PBS buffer (Invitrogen, #14190-094) and cell pellets were frozen in liquid nitrogen and subsequently stored at −80° C.
# (§3) The identified kinases are shown in Table 5 including the percent competition values for the sample to which 10 μM free compound had been added. In total of 20 different kinases were identified and competed by different degrees.
# PIK3Cb = PIK3Cb (Homo sapiens, UniProt P42338); assay: as above; set-up: endogenous in cells; conditions: 10 μM free compound; mix of Jurkat and Ramos cell lysates
# Protocol: as §1, §2, §3
# PIK3Cd [2] = target: T2, PIK3Cd (Homo sapiens, UniProt O00329); assay: as above; set-up: endogenous in cells; conditions: 10 μM free compound; mix of Jurkat and Ramos cell lysates
# Protocol: as §1, §2, §3
# PIK3Cg = PIK3Cg (Homo sapiens, UniProt P48736); assay: as above; set-up: endogenous in cells; conditions: 10 μM free compound; mix of Jurkat and Ramos cell lysates
# Protocol: as §1, §2, §3
# PIP5K2C = PIP5K2C (Homo sapiens, UniProt Q8TBX8); assay: as above; set-up: endogenous in cells; conditions: 10 μM free compound; mix of Jurkat and Ramos cell lysates
# Protocol: as §1, §2, §3
# DNAPK [3] = target: T1, DNAPK; assay: Kinobeads competition binding, immobilized CZC31207, HeLa/placenta lysate mix; set-up: endogenous in cells; host or cells: mixed lysate of HeLa cells and placenta; conditions: 10 μM free compound; mixed HeLa and placenta cell lysates
# Protocol: (§4) To the first aliquot of cell lysate 10 μM of the free compound (CZC31207) was added and allowed to bind to proteins in the lysate. Then the affinity matrix with the immobilized compound (Example 1) was added to capture proteins that were not interacting with the previously added free compound. Beads were separated from the lysate and bead bound proteins were eluted in SDS sample buffer and subsequently separated by SDS-Polyacrylamide gel electrophoresis (FIG. 4). Suitable gel bands were cut out and subjected to in-gel proteolytic digestion with trypsin. The second lysate aliquot was processed identically, however no free compound was added (DMSO solvent control). Peptides originating from samples 1 and 2 were labeled with iTRAQ reagents (iTRAQ 115 and iTRAQ 117) and the combined samples were analyzed with a nano-flow liquid chromatography system coupled online to a tandem mass spectrometer (LC-MS/MS) experiment followed by iTRAQ reporter ion quantification in the MS/MS spectra (Ross et al., 2004. Mol. Cell. Proteomics 3(12):1154-1169). Further experimental protocols can be found in WO2006/134056 and a previous publication (Bantscheff et al., 2007. Nature Biotechnology 25, 1035-1044).
# (§5) Cells were homogenized in a Potter S homogenizer in lysis buffer: 50 mM Tris-HCl, 0.8% NP40, 5% glycerol, 150 mM NaCl, 1.5 mM MgCl2, 25 mM NaF, 1 mM sodium vanadate, 1 mM DTT, pH 7.5. One complete EDTA-free tablet (protease inhibitor cocktail, Roche Diagnostics, 1 873 580) per 25 ml buffer was added. The material was dounced 20 times using a mechanized POTTER S, transferred to 50 ml falcon tubes, incubated for 30 minutes rotating at 4° C. and spun down for 10 minutes at 20,000×g at 4° C. (10,000 rpm in Sorvall SLA600, precooled). The supernatant was transferred to an ultracentrifuge (UZ)-polycarbonate tube (Beckmann, 355654) and spun for 1 hour at 145.000×g at 4° C. […] The supernatant was transferred again to a fresh 50 ml falcon tube, the protein concentration was determined by a Bradford assay (BioRad) and samples containing 50 mg of protein per aliquot were prepared. […]
# FRAP = FRAP (Homo sapiens, UniProt P42345); assay: as above; set-up: endogenous in cells; host or cells: mixed lysate of HeLa cells and placenta; conditions: 10 μM free compound; mixed HeLa and placenta cell lysates
# Protocol: as §4, §5
# PIK3Cd [4] = target: T2, PIK3Cd; assay: as above; set-up: endogenous in cells; host or cells: mixed lysate of HeLa cells and placenta; conditions: 10 μM free compound; mixed HeLa and placenta cell lysates
# Protocol: as §4, §5
# T2 sequence (O00329 whole entry): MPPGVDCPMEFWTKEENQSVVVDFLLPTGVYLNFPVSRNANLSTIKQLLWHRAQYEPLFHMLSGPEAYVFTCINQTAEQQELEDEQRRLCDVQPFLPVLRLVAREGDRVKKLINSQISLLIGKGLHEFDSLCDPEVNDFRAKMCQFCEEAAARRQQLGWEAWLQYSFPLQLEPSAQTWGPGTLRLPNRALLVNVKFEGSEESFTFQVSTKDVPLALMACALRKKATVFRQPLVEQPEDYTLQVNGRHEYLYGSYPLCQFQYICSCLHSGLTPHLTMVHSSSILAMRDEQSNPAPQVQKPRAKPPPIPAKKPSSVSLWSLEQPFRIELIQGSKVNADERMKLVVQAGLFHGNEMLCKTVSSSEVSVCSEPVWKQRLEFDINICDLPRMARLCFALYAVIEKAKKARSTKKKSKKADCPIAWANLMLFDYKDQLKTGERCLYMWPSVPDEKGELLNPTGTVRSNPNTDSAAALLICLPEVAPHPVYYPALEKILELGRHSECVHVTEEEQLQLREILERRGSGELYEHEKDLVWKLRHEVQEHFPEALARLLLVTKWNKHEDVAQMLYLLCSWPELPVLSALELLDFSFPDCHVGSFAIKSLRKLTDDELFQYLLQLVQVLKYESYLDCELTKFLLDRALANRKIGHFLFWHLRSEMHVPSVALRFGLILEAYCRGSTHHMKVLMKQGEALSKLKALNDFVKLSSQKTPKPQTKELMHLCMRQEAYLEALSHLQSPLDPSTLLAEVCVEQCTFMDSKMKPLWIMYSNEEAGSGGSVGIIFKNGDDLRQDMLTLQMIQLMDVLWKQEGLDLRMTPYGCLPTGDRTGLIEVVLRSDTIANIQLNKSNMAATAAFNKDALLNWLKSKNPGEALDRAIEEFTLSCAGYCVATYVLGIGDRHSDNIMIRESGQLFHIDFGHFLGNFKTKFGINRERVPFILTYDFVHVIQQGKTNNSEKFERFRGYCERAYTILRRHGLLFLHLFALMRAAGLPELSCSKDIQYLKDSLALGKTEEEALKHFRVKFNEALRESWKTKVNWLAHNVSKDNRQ
# T2 sequence (P27986 whole entry partner): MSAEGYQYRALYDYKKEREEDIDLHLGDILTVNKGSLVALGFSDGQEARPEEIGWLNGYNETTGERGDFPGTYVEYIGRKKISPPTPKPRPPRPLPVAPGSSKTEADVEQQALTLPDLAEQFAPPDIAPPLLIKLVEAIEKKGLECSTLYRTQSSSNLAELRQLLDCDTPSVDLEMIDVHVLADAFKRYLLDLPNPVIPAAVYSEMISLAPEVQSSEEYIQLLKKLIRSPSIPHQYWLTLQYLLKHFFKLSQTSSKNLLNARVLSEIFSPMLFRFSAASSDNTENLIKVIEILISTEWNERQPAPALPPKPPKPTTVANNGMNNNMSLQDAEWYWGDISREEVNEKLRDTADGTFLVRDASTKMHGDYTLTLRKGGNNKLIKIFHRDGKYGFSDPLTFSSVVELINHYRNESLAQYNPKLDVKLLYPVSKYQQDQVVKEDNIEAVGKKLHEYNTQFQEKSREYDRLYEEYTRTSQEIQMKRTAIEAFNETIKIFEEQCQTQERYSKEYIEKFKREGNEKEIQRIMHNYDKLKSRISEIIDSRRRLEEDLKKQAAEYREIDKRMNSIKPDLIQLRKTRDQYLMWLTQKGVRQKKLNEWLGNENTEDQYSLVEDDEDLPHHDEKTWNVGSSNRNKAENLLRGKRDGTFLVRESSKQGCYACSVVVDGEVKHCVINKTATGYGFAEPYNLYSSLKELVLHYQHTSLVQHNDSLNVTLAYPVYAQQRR
# Sequence of PIK3Cg (P48736 whole entry): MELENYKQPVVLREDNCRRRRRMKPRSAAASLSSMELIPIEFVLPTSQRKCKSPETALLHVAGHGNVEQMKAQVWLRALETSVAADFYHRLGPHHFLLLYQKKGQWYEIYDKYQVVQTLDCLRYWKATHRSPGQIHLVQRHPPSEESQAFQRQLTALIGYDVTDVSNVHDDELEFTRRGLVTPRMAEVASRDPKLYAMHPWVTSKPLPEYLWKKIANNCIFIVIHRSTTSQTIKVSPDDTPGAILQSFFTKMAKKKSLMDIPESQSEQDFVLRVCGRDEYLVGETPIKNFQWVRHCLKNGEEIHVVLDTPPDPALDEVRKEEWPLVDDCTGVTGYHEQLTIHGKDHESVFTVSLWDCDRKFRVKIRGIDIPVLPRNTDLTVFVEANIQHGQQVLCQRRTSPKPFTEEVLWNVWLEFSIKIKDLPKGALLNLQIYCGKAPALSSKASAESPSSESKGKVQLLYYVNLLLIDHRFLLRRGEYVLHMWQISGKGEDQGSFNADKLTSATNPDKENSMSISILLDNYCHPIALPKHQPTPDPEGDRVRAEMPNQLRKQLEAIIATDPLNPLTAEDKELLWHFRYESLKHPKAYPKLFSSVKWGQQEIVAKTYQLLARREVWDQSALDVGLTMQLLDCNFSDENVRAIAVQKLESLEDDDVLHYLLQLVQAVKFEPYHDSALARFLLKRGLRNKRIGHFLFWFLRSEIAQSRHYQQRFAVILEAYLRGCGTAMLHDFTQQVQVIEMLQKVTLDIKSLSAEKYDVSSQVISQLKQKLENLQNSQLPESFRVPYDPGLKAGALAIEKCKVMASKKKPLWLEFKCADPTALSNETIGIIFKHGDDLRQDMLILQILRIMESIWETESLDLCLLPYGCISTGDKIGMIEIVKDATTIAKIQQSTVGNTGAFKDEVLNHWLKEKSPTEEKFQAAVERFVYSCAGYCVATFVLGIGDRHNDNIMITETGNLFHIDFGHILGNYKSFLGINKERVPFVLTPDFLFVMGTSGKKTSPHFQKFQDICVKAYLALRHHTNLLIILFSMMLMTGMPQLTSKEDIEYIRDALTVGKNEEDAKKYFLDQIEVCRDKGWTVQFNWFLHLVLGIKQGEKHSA
# Sequence of PIP5K2C (Q8TBX8 whole entry): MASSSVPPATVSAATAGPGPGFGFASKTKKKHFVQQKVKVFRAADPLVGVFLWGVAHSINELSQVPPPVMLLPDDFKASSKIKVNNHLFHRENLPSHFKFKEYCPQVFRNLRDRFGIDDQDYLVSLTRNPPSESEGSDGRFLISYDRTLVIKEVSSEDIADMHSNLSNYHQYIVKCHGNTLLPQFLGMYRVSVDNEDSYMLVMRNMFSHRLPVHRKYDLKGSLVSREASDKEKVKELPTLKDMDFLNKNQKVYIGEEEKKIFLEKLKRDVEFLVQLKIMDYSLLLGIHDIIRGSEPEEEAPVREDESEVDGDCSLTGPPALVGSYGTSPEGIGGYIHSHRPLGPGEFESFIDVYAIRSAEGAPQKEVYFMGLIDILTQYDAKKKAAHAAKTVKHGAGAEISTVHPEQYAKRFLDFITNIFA
# Sequence of PIK3Cb (P42338 whole entry): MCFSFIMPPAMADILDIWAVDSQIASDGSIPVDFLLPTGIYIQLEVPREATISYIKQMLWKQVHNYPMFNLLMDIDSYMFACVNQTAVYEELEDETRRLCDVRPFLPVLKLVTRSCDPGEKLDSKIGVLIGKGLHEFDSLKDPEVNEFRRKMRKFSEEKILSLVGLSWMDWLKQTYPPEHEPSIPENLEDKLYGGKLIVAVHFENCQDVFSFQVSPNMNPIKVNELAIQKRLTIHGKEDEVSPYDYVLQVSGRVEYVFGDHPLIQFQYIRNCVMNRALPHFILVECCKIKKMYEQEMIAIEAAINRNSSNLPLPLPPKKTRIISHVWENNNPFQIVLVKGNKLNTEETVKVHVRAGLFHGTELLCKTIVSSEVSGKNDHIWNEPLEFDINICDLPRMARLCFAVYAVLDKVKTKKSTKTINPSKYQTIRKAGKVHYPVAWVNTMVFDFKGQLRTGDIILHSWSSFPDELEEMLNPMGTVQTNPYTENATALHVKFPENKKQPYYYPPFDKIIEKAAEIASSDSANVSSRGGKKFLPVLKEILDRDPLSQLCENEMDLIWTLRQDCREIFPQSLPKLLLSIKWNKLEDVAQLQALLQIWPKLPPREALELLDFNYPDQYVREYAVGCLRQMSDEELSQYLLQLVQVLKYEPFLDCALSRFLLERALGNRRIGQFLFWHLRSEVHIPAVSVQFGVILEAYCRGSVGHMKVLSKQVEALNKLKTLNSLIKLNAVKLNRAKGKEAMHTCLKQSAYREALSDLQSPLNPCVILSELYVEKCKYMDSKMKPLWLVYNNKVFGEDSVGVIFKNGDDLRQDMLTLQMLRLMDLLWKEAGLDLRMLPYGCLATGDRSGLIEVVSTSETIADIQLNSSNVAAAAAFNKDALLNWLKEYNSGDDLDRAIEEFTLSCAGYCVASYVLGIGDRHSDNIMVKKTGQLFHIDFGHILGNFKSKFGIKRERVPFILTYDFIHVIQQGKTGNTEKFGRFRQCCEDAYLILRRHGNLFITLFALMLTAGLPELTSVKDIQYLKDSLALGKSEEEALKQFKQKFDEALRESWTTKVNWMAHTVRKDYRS
# Sequence of PIK3Cb (P27986 whole entry partner): as the sequence (P27986 whole entry partner) above
structure (smiles),measurement,setting,value
"CC(C)NS(=O)(=O)c1cncc(-c2ccc3nc(NC(=O)NCCN)nn3c2)c1 [CZC31207, 5-(2-(3-(2-aminoethyl)ureido)-[1,2,4]triazolo[1,5-a]pyridin-6-yl)-N-isopropylpyridine-3-sulfonamide]",Competition % DNAPK,DNAPK [1],38.2%
same,Competition % PIK3Cb,PIK3Cb,94.8%
same,Competition % PIK3Cd,PIK3Cd [2],91.3%
same,Competition % PIK3Cg,PIK3Cg,91.5%
same,Competition % PIP5K2C,PIP5K2C,75.5%
same,Competition % DNAPK,DNAPK [3],35.3%
same,Competition % FRAP,FRAP,25.9%
same,Competition % PIK3Cd,PIK3Cd [4],83.6%
